# Where a name gives a salt, the structure may show the parent alone. Read-outs that look alike come from different tables or passages of the source.
# How the values were obtained:
# [1] = system: viable cells in culture; test: Cell viability assay at 10 μM (CellTiter-Glo, Table VII); assay type: cell-based; conditions: compound 10 μM, 72 h;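 also: graded A 0-20%; B 21-40%; C 41-60%; D over 60% viable cells relative to DMSO control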
# Procedure: The CellTiter-Glo® Luminescent Cell Viability Assay (Promega Corporation. Madison, Wis., USA) is method a determining the number of viable cells in culture based on quantification of the ATP being present which is an indicator of metabolically active cells was used according to manufacturers protocol. In detail the assay was performed in a 96 well format were 1000 cells/well were incubated with compound at concentration 10 μM as well as DMSO control for 72 h in 100 μl cell culture medium. Percentage of inhibition was calculated compared to ATP amount of DMSO control.
melting point,SMILES,also measured
106 to 108 °C,"COc1cc2c(Oc3ccc(NS(=O)(=O)c4ccccc4C(F)(F)F)cc3F)ccnc2cc1OCCCNC(=O)NC(C)(C)C [Example 98, N-(4-{7-[3-(3-tert-Butyl-ureido)-propoxy]-6-methoxy-quinolin-4-yloxy}-3-fluoro-phenyl)-2-trifluoromethyl-benzenesulfonamide]",
188 to 190 °C,"COc1cc2c(Oc3ccc(NS(=O)(=O)c4cc(F)ccc4F)cc3F)ccnc2cc1OCCCN (as salt: hydrochloride) [Example 122, N-{4-[7-(3-Amino-propoxy)-6-methoxy-quinolin-4-yloxy]-3-fluoro-phenyl}-2,5-difluoro-benzenesulfonamide hydrochloride]",
104 to 106 °C,"COc1cc2c(Oc3ccc(NS(=O)(=O)/C=C/c4ccccc4)cc3F)ccnc2cc1OCCCN1CCCC(C)C1 (centres unmarked) [Example 73, 2-Phenyl-ethenesulfonic acid (3-fluoro-4-{6-methoxy-7-[3-(3-methyl-piperidin-1-yl)-propoxy]-quinolin-4-yloxy}-phenyl)-amide]",
158 to 160 °C,"COc1cc2c(Oc3ccc(NS(=O)(=O)C4CC4)cc3F)ccnc2cc1OCCCN1CCCC(C)C1 (centres unmarked) [Example 60, Cyclopropanesulfonic acid (3-fluoro-4-{6-methoxy-7-[3-(3-methyl-piperidin-1-yl)-propoxy]-quinolin-4-yloxy}-phenyl)-amide]",
152 to 156 °C,"COc1cc2c(Oc3ccc(NS(=O)(=O)c4ccccc4C(F)(F)F)c(F)c3)ccnc2cc1OCCCN1CCCC1 [Example 213, N-{2-Fluoro-4-[6-methoxy-7-(3-pyrrolidin-1-yl-propoxy)-quinolin-4-yloxy]-phenyl}-2-trifluoromethyl-benzenesulfonamide]",
98 to 100 °C,"CCCCS(=O)(=O)Nc1ccc(Oc2ccnc3cc(OCCCN4CCOCC4)c(OC)cc23)c(F)c1 [Example 79, Butane-1-sulfonic acid {3-fluoro-4-[6-methoxy-7-(3-morpholin-4-yl-propoxy)-quinolin-4-yloxy]-phenyl}-amide]",
201 to 202 °C,"COc1cc2c(Oc3ccc(NS(=O)(=O)c4cccs4)cc3F)ccnc2cc1OCCCN1CCN(C)CC1 [Example 31, Thiophene-2-sulfonic acid (3-fluoro-4-{6-methoxy-7-[3-(4-methyl-piperazin-1-yl)-propoxy]-quinolin-4-yloxy}-phenyl)-amide]",
190 to 191 °C,"COc1cc2c(Oc3ccc(NS(=O)(=O)c4cccc(-c5ccccc5)c4)cc3F)ccnc2cc1OCCCN1CCN(C)CC1 [Example 13, Biphenyl-3-sulfonic acid (3-fluoro-4-{6-methoxy-7-[3-(4-methyl-piperazin-1-yl)-propoxy]-quinolin-4-yloxy}-phenyl)-amide]","viability at 10 µM ([1]; Homo sapiens, HCT-116, HCT116 def, read-out: percentage (%) of viable cells HCT 116def): 0 to 20%; viability at 10 µM ([1]; Homo sapiens, HCT-116, HCT116 wt, read-out: percentage (%) of viable cells HCT 116wt): 0 to 20%; viability at 10 µM ([1]; Homo sapiens, HT-29, HT29, read-out: percentage (%) of viable cells HT29): 0 to 20%; viability at 10 µM ([1]; Homo sapiens, NCI-H358, H358, read-out: percentage (%) of viable cells H358): 0 to 20%; viability at 10 µM ([1]; Homo sapiens, NCI-H1650, H1650, read-out: percentage (%) of viable cells H1650): 21 to 40%; viability at 10 µM ([1]; Homo sapiens, NCI-H1666, H1666, read-out: percentage (%) of viable cells H1666): 0 to 20%; viability at 10 µM ([1]; Homo sapiens, NCI-H1975, H1975, read-out: percentage (%) of viable cells H1975): 0 to 20%; viability at 10 µM ([1]; Homo sapiens, NCI-H1993, H1993, read-out: percentage (%) of viable cells H1993): 0 to 20%; viability at 10 µM ([1]; Homo sapiens, A549, read-out: percentage (%) of viable cells A549): 21 to 40%; viability at 10 µM ([1]; Homo sapiens, HCC827, read-out: percentage (%) of viable cells HCC827): 0 to 20%; viability at 10 µM ([1]; Homo sapiens, SW480, read-out: percentage (%) of viable cells SW480): 0 to 20%; viability at 10 µM ([1]; RKO, read-out: percentage (%) of viable cells RKO): 0 to 20%"
213 to 214 °C,"COc1cc2c(Oc3ccc(NS(=O)(=O)c4ccn(C)n4)cc3F)ccnc2cc1OCCN1CCOCC1 [Example 107, 1-Methyl-1H-pyrazole-3-sulfonic acid {3-fluoro-4-[6-methoxy-7-(2-morpholin-4-yl-ethoxy)-quinolin-4-yloxy]-phenyl}-amide]",
175 to 176 °C,"COc1cc2c(Oc3ccc(NS(=O)(=O)c4ccccc4OC)cc3F)ccnc2cc1OCCCN1CCCC(C)C1 (centres unmarked) [Example 71, N-(3-Fluoro-4-{6-methoxy-7-[3-(3-methyl-piperidin-1-yl)-propoxy]-quinolin-4-yloxy}-phenyl)-2-methoxy-benzenesulfonamide]",
152 to 154 °C,"CCn1cc(S(=O)(=O)Nc2ccc(Oc3ccnc4cc(OCCCN5CCCC(C)C5)c(OC)cc34)c(F)c2)cn1 (centres unmarked) [Example 68, 1-Ethyl-1H-pyrazole-4-sulfonic acid (3-fluoro-4-{6-methoxy-7-[3-(3-methyl-piperidin-1-yl)-propoxy]-quinolin-4-yloxy}-phenyl)-amide]",
125 to 126 °C,"COc1cc2c(Oc3ccc(NS(=O)(=O)c4ccccc4C(F)(F)F)c(F)c3)ccnc2cc1OCCCN1CCCC(C)C1 (centres unmarked) [Example 215, N-(2-Fluoro-4-{6-methoxy-7-[3-(3-methyl-piperidin-1-yl)-propoxy]-quinolin-4-yloxy}-phenyl)-2-trifluoromethyl-benzenesulfonamide]",
110 to 112 °C,"COc1cc2c(Oc3ccc(NS(=O)(=O)c4cccc(Cl)c4)cc3F)ccnc2cc1OCCCN1CCCC(C)C1 (centres unmarked) [Example 69, 3-Chloro-N-(3-fluoro-4-{6-methoxy-7-[3-(3-methyl-piperidin-1-yl)-propoxy]-quinolin-4-yloxy}-phenyl)-benzenesulfonamide]",
172 to 174 °C,"COc1cccc(S(=O)(=O)Nc2ccc(Oc3ccnc4cc(OCCCN5CCCC(C)C5)c(OC)cc34)c(F)c2)c1 (centres unmarked) [Example 42, N-(3-Fluoro-4-{6-methoxy-7-[3-(3-methyl-piperidin-1-yl)-propoxy]-quinolin-4-yloxy}-phenyl)-3-methoxy-benzenesulfonamide]",
128 to 130 °C,"COc1cc2c(Oc3ccc(NS(=O)(=O)c4cccc(C(F)(F)F)c4)cc3F)ccnc2cc1OCCCN1CCCC(C)C1 (centres unmarked) [Example 39, ′N-(3-Fluoro-4-{6-methoxy-7-[3-(3-methyl-piperidin-1-yl)-propoxy]-quinolin-4-yloxy}-phenyl)-3-trifluoromethyl-benzenesulfonamide]",
146 to 147 °C,"COc1cc2c(Oc3ccc(NS(=O)(=O)c4cccs4)cc3F)ccnc2cc1OCCN1CCOCC1 [Example 105, Thiophene-2-sulfonic acid {3-fluoro-4-[6-methoxy-7-(2-morpholin-4-yl-ethoxy)-quinolin-4-yloxy]-phenyl}-amide]",
186 to 188 °C,"COc1cc2c(Oc3cccc(NS(=O)(=O)c4cc(F)ccc4F)c3)ccnc2cc1OCCCN1CCN(C)CC1 [Example 123, 2,5-Difluoro-N-(3-{6-methoxy-7-[3-(4-methyl-piperazin-1-yl)-propoxy]-quinolin-4-yloxy}-phenyl)-benzenesulfonamide]",
182 to 183 °C,"COc1cc2c(Oc3ccc(NS(=O)(=O)c4ccccc4OC)cc3F)ccnc2cc1OCCN1CCOCC1 [Example 103, N-{3-Fluoro-4-[6-methoxy-7-(2-morpholin-4-yl-ethoxy)-quinolin-4-yloxy]-phenyl}-2-methoxy-benzenesulfonamide]",
164 to 166 °C,"COc1cc2c(Oc3ccc(NS(=O)(=O)c4ccn(C)n4)cc3F)ccnc2cc1OCCCN1CCCC(C)C1 (centres unmarked) [Example 61, 1-Methyl-1H-pyrazole-3-sulfonic acid (3-fluoro-4-{6-methoxy-7-[3-(3-methyl-piperidin-1-yl)-propoxy]-quinolin-4-yloxy}-phenyl)-amide]",
95 to 97 °C,"COc1cc2c(Oc3ccc(NS(=O)(=O)c4cccc(OC(F)F)c4)cc3F)ccnc2cc1OCCCN1CCN(C)CC1 [Example 30, 3-Difluoromethoxy-N-(3-fluoro-4-{6-methoxy-7-[3-(4-methyl-piperazin-1-yl)-propoxy]-quinolin-4-yloxy}-phenyl)-benzenesulfonamide]",
214 to 216 °C,"COc1cc2c(Oc3ccc(NS(=O)(=O)c4ccccc4F)cc3F)ccnc2cc1OCCCN1CCCCC1 [Example 2, 2-Fluoro-N-{3-fluoro-4-[6-methoxy-7-(3-piperidin-1-yl-propoxy)-quinolin-4-yloxy]-phenyl}-benzenesulfonamide]",
190 to 191 °C,"COc1cc2c(Oc3ccc(NS(=O)(=O)c4cccc5cccnc45)cc3F)ccnc2cc1OCCCN1CCCC(C)C1 (centres unmarked) [Example 74, Quinoline-8-sulfonic acid (3-fluoro-4-{6-methoxy-7-[3-(3-methyl-piperidin-1-yl)-propoxy]-quinolin-4-yloxy}-phenyl)-amide]",

SMILES,melting point,also measured
"COc1cc2c(Oc3ccc(NS(=O)(=O)c4ccccc4C(F)(F)F)cc3F)ccnc2cc1OCCCCN1CCOCC1 [Example 214, N-{3-Fluoro-4-[6-methoxy-7-(4-morpholin-4-yl-butoxy)-quinolin-4-yloxy]-phenyl}-2-trifluoromethyl-benzenesulfonamide]",102 to 104 °C,
